Measurements taken from PubChem BioAssay AID2060499 (Molecular Pharmacology Branch, DTP, NCI, 2025).

Tested on: 777334-354-R2-J4-PDC tumor spheroids with HUVEC/MSC, viability
Assay: Anticancer human tumor 777334-354-R2-J4-PDC patient-derived pancreatic adenocarcinoma cell line growth inhibition [GQUAD]
Details: for IC50: curve of first compound; for viability, T/C: stronger effect = lower value
In short: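 Multi-cell-type spheroids of tumor cells with HUVEC and mesenchymal stem cells, treated with drug combinations. Concentrations descend in half-log steps from near clinical Cmax, or from 10 microM where Cmax is unknown; viability read-out.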

[1] = second compound 0.0316 µM, first compound 0.0316 µM
[2] = second compound 0.0316 µM, first compound 0.1 µM
[3] = second compound 0.0316 µM, first compound 0.316 µM
[4] = second compound 0.0316 µM, first compound 1 µM
[5] = second compound 0.0316 µM, first compound 3.16 µM
[6] = second compound 0.0316 µM, first compound 10 µM
[7] = second compound 0.1 µM, first compound 0.0316 µM
[8] = second compound 0.1 µM, first compound 0.1 µM
[9] = second compound 0.1 µM, first compound 0.316 µM
[10] = second compound 0.1 µM, first compound 1 µM
[11] = second compound 0.1 µM, first compound 3.16 µM
[12] = second compound 0.1 µM, first compound 10 µM
[13] = second compound 0.316 µM, first compound 0.0316 µM
[14] = second compound 0.316 µM, first compound 0.1 µM
[15] = second compound 0.316 µM, first compound 0.316 µM
[16] = second compound 0.316 µM, first compound 1 µM
[17] = second compound 0.316 µM, first compound 3.16 µM
[18] = second compound 0.316 µM, first compound 10 µM
[19] = second compound 1 µM, first compound 0.0316 µM
[20] = second compound 1 µM, first compound 0.1 µM
[21] = second compound 1 µM, first compound 0.316 µM
[22] = second compound 1 µM, first compound 1 µM
[23] = second compound 1 µM, first compound 3.16 µM
[24] = second compound 1 µM, first compound 10 µM
[25] = second compound 3.16 µM, first compound 0.0316 µM
[26] = second compound 3.16 µM, first compound 0.1 µM
[27] = second compound 3.16 µM, first compound 0.316 µM
[28] = second compound 3.16 µM, first compound 1 µM
[29] = second compound 3.16 µM, first compound 3.16 µM
[30] = second compound 3.16 µM, first compound 10 µM
[31] = second compound 10 µM, first compound 0.0316 µM
[32] = second compound 10 µM, first compound 0.1 µM
[33] = second compound 10 µM, first compound 0.316 µM
[34] = second compound 10 µM, first compound 1 µM
[35] = second compound 10 µM, first compound 3.16 µM
[36] = second compound 10 µM, first compound 10 µM
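Further: spheroids exposed to compounds for 7 days before readout.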

COc1ncnc(C2CC2)c1-c1ncc2cnn(Cc3ccc(-c4nc(C(F)(F)F)cn4C(C)C)cc3)c2n1 + CN(C)c1ccc(Nc2c3ccc(NC(=O)CCN4CCCC4)cc3nc3cc(NC(=O)CCN4CCCC4)ccc23)cc1
IC50 (second compound 0.0316 µM): > 10000 nM
IC50 (second compound 0.1 µM): > 10000 nM
IC50 (second compound 0.316 µM): > 10000 nM
IC50 (second compound 1 µM): > 10000 nM
IC50 (second compound 3.16 µM): > 10000 nM
IC50 (second compound 10 µM): > 10000 nM
viability, T/C [1]: 103%
viability, T/C [2]: 94.8%
viability, T/C [3]: 108%
viability, T/C [4]: 95.7%
viability, T/C [5]: 105%
viability, T/C [6]: 111%
viability, T/C [7]: 104%
viability, T/C [8]: 91.1%
viability, T/C [9]: 94.4%
viability, T/C [10]: 84.5%
viability, T/C [11]: 100%
viability, T/C [12]: 98.3%
viability, T/C [13]: 97.7%
viability, T/C [14]: 94.5%
viability, T/C [15]: 94%
viability, T/C [16]: 95%
viability, T/C [17]: 109%
viability, T/C [18]: 105%
viability, T/C [19]: 96.2%
viability, T/C [20]: 101%
viability, T/C [21]: 94.5%
viability, T/C [22]: 93.8%
viability, T/C [23]: 106%
viability, T/C [24]: 96.8%
viability, T/C [25]: 84.1%
viability, T/C [26]: 85.1%
viability, T/C [27]: 92.6%
viability, T/C [28]: 94.2%
viability, T/C [29]: 97.2%
viability, T/C [30]: 91.9%
viability, T/C [31]: 81.2%
viability, T/C [32]: 73.5%
viability, T/C [33]: 80.1%
viability, T/C [34]: 75.6%
viability, T/C [35]: 70.6%
viability, T/C [36]: 58.4%

CC[C@@]1(O)C(=O)OCc2c1cc1n(c2=O)Cc2cc3c(CN(C)C)c(O)ccc3nc2-1 + Cc1[nH]c2ccc(F)cc2c1-c1nc2c3cccnc3c3ncccc3c2[nH]1
IC50 (second compound 0.0316 µM): 218 nM
IC50 (second compound 0.1 µM): 191 nM
IC50 (second compound 0.316 µM): 200 nM
IC50 (second compound 1 µM): 124 nM
IC50 (second compound 3.16 µM): < 0.999 nM
IC50 (second compound 10 µM): < 0.999 nM
viability, T/C (second compound 0.0316 µM, first compound 0.000999 µM): 103%
viability, T/C (second compound 0.0316 µM, first compound 0.00316 µM): 102%
viability, T/C (second compound 0.0316 µM, first compound 0.00999 µM): 104%
viability, T/C [1]: 82.3%
viability, T/C (second compound 0.0316 µM, first compound 0.0999 µM): 69.6%
viability, T/C [3]: 41.3%
viability, T/C (second compound 0.1 µM, first compound 0.000999 µM): 100%
viability, T/C (second compound 0.1 µM, first compound 0.00316 µM): 97.1%
viability, T/C (second compound 0.1 µM, first compound 0.00999 µM): 111%
viability, T/C [7]: 96%
viability, T/C (second compound 0.1 µM, first compound 0.0999 µM): 61%
viability, T/C [9]: 41.5%
viability, T/C (second compound 0.316 µM, first compound 0.000999 µM): 89.5%
viability, T/C (second compound 0.316 µM, first compound 0.00316 µM): 95.5%
viability, T/C (second compound 0.316 µM, first compound 0.00999 µM): 96.4%
viability, T/C [13]: 85.5%
viability, T/C (second compound 0.316 µM, first compound 0.0999 µM): 61.7%
viability, T/C [15]: 42.4%
viability, T/C (second compound 1 µM, first compound 0.000999 µM): 79.3%
viability, T/C (second compound 1 µM, first compound 0.00316 µM): 83.6%
viability, T/C (second compound 1 µM, first compound 0.00999 µM): 85.9%
viability, T/C [19]: 83.6%
viability, T/C (second compound 1 µM, first compound 0.0999 µM): 53.9%
viability, T/C [21]: 33%
viability, T/C (second compound 3.16 µM, first compound 0.000999 µM): 34.2%
viability, T/C (second compound 3.16 µM, first compound 0.00316 µM): 41.7%
viability, T/C (second compound 3.16 µM, first compound 0.00999 µM): 35.7%
viability, T/C [25]: 28.4%
viability, T/C (second compound 3.16 µM, first compound 0.0999 µM): 15.9%
viability, T/C [27]: 14.6%
viability, T/C (second compound 10 µM, first compound 0.000999 µM): 28.4%
viability, T/C (second compound 10 µM, first compound 0.00316 µM): 38.5%
viability, T/C (second compound 10 µM, first compound 0.00999 µM): 30.7%
viability, T/C [31]: 20.2%
viability, T/C (second compound 10 µM, first compound 0.0999 µM): 13.3%
viability, T/C [33]: 11.3%

Nc1ccn(C2OC(CO)C(O)C2(F)F)c(=O)n1 (stereo unspecified) + CN(C)c1ccc(Nc2c3ccc(NC(=O)CCN4CCCC4)cc3nc3cc(NC(=O)CCN4CCCC4)ccc23)cc1
IC50 (second compound 0.0316 µM): 557 nM
IC50 (second compound 0.1 µM): 402 nM
IC50 (second compound 0.316 µM): 326 nM
IC50 (second compound 1 µM): 171 nM
IC50 (second compound 3.16 µM): 150 nM
IC50 (second compound 10 µM): 77.9 nM
viability, T/C [1]: 80.7%
viability, T/C [2]: 67.8%
viability, T/C [3]: 54.4%
viability, T/C [4]: 44.3%
viability, T/C [5]: 37.5%
viability, T/C [6]: 27.3%
viability, T/C [7]: 80.5%
viability, T/C [8]: 71.5%
viability, T/C [9]: 51.5%
viability, T/C [10]: 39.1%
viability, T/C [11]: 32.6%
viability, T/C [12]: 27.4%
viability, T/C [13]: 68.5%
viability, T/C [14]: 65.8%
viability, T/C [15]: 45.4%
viability, T/C [16]: 40.5%
viability, T/C [17]: 33.2%
viability, T/C [18]: 23.4%
viability, T/C [19]: 76.2%
viability, T/C [20]: 55.3%
viability, T/C [21]: 42.2%
viability, T/C [22]: 34.4%
viability, T/C [23]: 30.1%
viability, T/C [24]: 22.9%
viability, T/C [25]: 67.4%
viability, T/C [26]: 51.8%
viability, T/C [27]: 43.5%
viability, T/C [28]: 33.7%
viability, T/C [29]: 32.4%
viability, T/C [30]: 22.2%
viability, T/C [31]: 59.5%
viability, T/C [32]: 49.5%
viability, T/C [33]: 33.9%
viability, T/C [34]: 30.5%
viability, T/C [35]: 30.3%
viability, T/C [36]: 18.5%
